Key:
[1] = test system: myristoylated chimeric CD3.zeta./FKBP12 (MZF3E) receptor; test: NFAT-SX secreted alkaline phosphatase reporter activation through myristoylated chimeric CD3.zeta./FKBP12 (MZF3E) receptor; format: cell-based, human; details: 1 ng/ml FK506, FK1012B-stimulated
Experimental: Activity of the Dimeric FK506 Derivative, FK1012B, on the Myristoylated Chimeric CD3.zeta./FKBP12 (MZF3E) Receptor
5 μg of the eukaryotic expression vector, pBJ5, containing a myristoylated chimeric receptor was co-transfected with 4 μg NFAT-SX. MZE, MZF1E, MZF2E and MZF3E contain 0, 1, 2, or 3 copies of FKBP12, respectively, downstream of a myristoylated CD3.zeta. cytoplasmic domain (see FIG. 2). As a control, 5 μg of pBJ5 was used in a parallel transfection. After 24 hours, aliquots of each transfection containing approximately 10^5 cells were incubated with log dilutions of the drug, FK1012B, as indicated. As a positive control and to control for transfection efficiency, ionomycln (1 μm) and PMA (25 ng/ml) were added to aliquots from each transfection. After an additional 12 hour incubation, the supernatants were assayed for alkaline phosphatase activity and these activities were expressed relative to that or the positive control samples. […] Compare FIGS. 7 and 8.
A myristoylation sequence from c-src was obtained from Pellman, et al., Nature 314, 374, and joined to a complementary sequence of CD3.zeta. to provide a primer which was complementary to a sequence 3' of the transmembrane domain, namely P#8908 (SEQ ID NO. 23). This primer has a SacII site adjacent to the 5' terminus and a XhoI sequence adjacent to the 3' terminus of the myristoylation sequence. […]

[2] = test system: NF-AT-directed transcription; details: Emmel et al. 1989; Flanagan et al. 1991; cited from earlier work
[3] = test system: chimeric FKBP12/CD3.zeta. (1FK3) receptor; test: NFAT-inducible secreted alkaline phosphatase reporter activation through chimeric FKBP12/CD3.zeta. (1FK3) receptor; format: cell-based, human; details: 2 ng/ml FK506; FK1012A-stimulated 1FK3 transfected cells
Experimental: Activity of the Dimeric FK506 Derivative, FK1012A, on the Chimeric FKBP12/CD3.zeta. (1FK3) Receptor
5 μg of the eukaryotic expression vector, pBJ5, (based on pCDL-SRαwith a polylinker inserted between the 16S splice site and the poly A site) containing the chimeric receptor (1FK3), was co-transfected with 4 μg of the NFAT-inducible secreted alkaline phosphatase reporter plasmid, NFAT-SX. As a control, 5 μg of pBJ5 was used, instead of 1FK3/pBJ5, in a parallel transfection. After 24 hours, aliquots of each transfection containing approximately 10^5 cells were incubated with log dilutions of the drug, FK1012A, as indicated. As a positive control and to control for transfection efficiency, ionomycin (1 μm) and PMA (25 ng/ml) were added to aliquots from each transfection. After an additional 14 hour incubation, the supernatants were assayed for alkaline phosphatase activity and these activities were expressed relative to that of the positive control samples.
To obtain the binding domain for FK506, plasmid rhFKBP (provided by S. Schreiber, Nature (1990) 346, 674) was used with P#6052 (SEQ ID NO. 33) and P#6053 (SEQ ID NO. 35) to obtain a 340 bp XhoI-SalI fragment containing human FKBP12. This fragment was inserted into pBluescript digested with XhoI and SalI to provide plasmid FK12/KS, which was the source for the FKBP12 binding domain. […]

[4] = test system: chimeric receptor TAC/TAC/ZETA (TTZ); test: Secreted alkaline phosphatase reporter (NFAT-SX and other IL-2 enhancer elements) activation via cross-linking of chimeric receptor TAC/TAC/ZETA in TAg Jurkat cells; format: cell-based, human; details: 1 ng/ml FK506; TTZ-transfected TAg Jurkat cells
Excerpt: Induction of isolated IL-2 Enhancer-Binding Transcription Factors by cross-Linking the CD3.zeta. Chain of the T-Cell Receptor
The plasmid pSXNeo/IL2 (IL2-SX) (FIG. 1), placing the placental secreted alkaline phosphatase gene under the control of human IL-2 promoter (-325 to +47; MCB(86) 6, 3042), and variants (i.e. NFAT-SX, NFκB-SX, OAP/Oct1-SX, and AP-1-SX) under the control of the minimal IL-2 promoter (-325 to -294 and -72 to +47) plus synthetic oligomers, containing various promoter elements (i.e. NFAT, NKκKB, OAP/Oct-1, and AP1, respectively), were made by three piece ligations of 1) pPL/SEAP (Berger, et al., Gene (1988) 66,1) cut with SspI and HindIII; 2) pSV2/Neo (Southern and Berg, J. Mol. Appl. Genet. (1982) 1, 332) cut with NdeI, blunted with Klenow, then cut with PvuI; and 3) various promoter-containing plasmids (i.e. NFAT-CD8, κB-CD8, cx12lacZ-Oct-1, AP1-LUCIF3H, or cx15IL2) (described below) cut with PvuI and HindIII. NFAT-CD8 contains 3 copies of the NFAT-binding site (-286 to -257; Genes and Dev. (1990) 4, 1823) and cx12lacZ-Oct contains 4 copies of the OAP/Oct-1/(ARRE-1) binding site (MCB, (1988) 8, 1715) from the human IL-2 enhancer; κB-CD8 contains 3 copies of the NFκB binding site from the murine κ light chain (EMBO (1990) 9, 4425) and AP1-LUCIF3H contains 5 copies of the AP-1 site (5'-[…]-3') from the metallothionen promoter. […]

## C=CC[C@@H]1/C=C(\C)C[C@H](C)C[C@H](OC)[C@H]2O[C@@](O)(C(=O)C(=O)N3CCCC[C@H]3C(=O)O[C@H](/C(C)=C/[C@@H]3CC[C@@H](O)[C@H](OC)C3)[C@H](C)[C@@H](O)CC1=O)[C@H](C)C[C@@H]2OC [FK506]
[1]
  stimulations after addition of FK506: dropped all stimulations to near background levels
[2]
  inhibition of NF-AT-directed transcription: Inhibition of NF-AT-directed transcription
[3]
  stimulations after addition of FK506: dropped all stimulations to background levels
[4]
  activity due to NFAT after addition of FK506: dropped all activity due to NFAT to background levels

From patent publication US5871753A, “Regulated transcription of targeted genes and other biological events” (Board of Trustees of the Leland Stanford Junior University, priority 1995, dated 1999)
